# Measured values reported in patent US20110097426A1, “Methods for Safe and Effective Treatment Using Oxazaphosphorine Drugs” (Accentia Biopharmaceuticals, Inc., priority 2007, published 2011).
# Like-named read-outs stand apart in the source and are kept apart here.
# Columns and labels:
# [1] = system: white blood cell (WBC) count
# Method: Nine patients were treated 50 mg/kg/day cyclophosphamide intravenously for four days (on Day-3 to Day 0).
# On Day 6, (six days after completion of high-dose cyclophosphamide treatment), patients received G-CSF.
# [2] = system: patients with aggressive relapsing-remitting multiple sclerosis
# Text: All 9 patients had aggressive relapsing-remitting multiple sclerosis, 8 of whom failed conventional therapy and 1 was untreated. Median age at time of entry was 29 years (range of 20 to 47 years). The mean number of gadolinium enhancing lesions on baseline MRI was 6.5 (range 3-11).
compound,measurement,setting,value
O=P1(N(CCCl)CCCl)NCCCO1 (stereo not shown) [cyclophosphamide],minimum WBC,[1]; patient HiCy01,70
same,minimum WBC,[1]; patient HiCy07,6
same,minimum WBC count,[1]; patient HiCy11,24
same,minimum WBC,[1]; patient HiCy14,31
same,minimum WBC count,[1]; patient HiCy19,50
same,WBC count,"[1]; patients HiCy05 and HiCy13, within two weeks of treatment",0
same,minimum WBC count,[1]; patients HiCy09 and HiCy15 (both),12
same,reduction in disability (EDSS),"[2]; 50 mg/kg/day i.v. for four days, 9 patients",50%
same,reduction in gadolinium enhancements,"[2]; at 6 months, 50 mg/kg/day i.v. for four days, 9 patients",90%
same,reduction in gadolinium enhancements,"[2]; by 18 months, 50 mg/kg/day i.v. for four days, 9 patients",94%
same,adverse outcomes,[2]; initial cohort of 9 patients with severe relapsing MS,no significant adverse outcomes
same,patients having no disability (EDSS score of 0),[2]; of 9 patients,3 patients
same,patients with EDSS score of 1,[2]; of 9 patients,1 patient
same,patients with an exacerbation during follow-up,"[2]; of 9 patients, started on conventional MS therapy at 18 months",one
same,gadolinium enhancing lesions (GEL) at subsequent follow-up visits,[2]; patient HiCy01,did not have any GEL
same,gadolinium enhancing lesions (GEL) at follow-up,"[2]; patients HiCy05 and HiCy13, up to 24 months follow-up",no gadolinium enhancing lesions
same,gadolinium enhancing lesions (GEL) on follow-up MRIs,"[2]; patients HiCy07 and HiCy14, who first went to 0 GEL",a single GEL
same,gadolinium enhancing lesions (GEL),[2]; patients HiCy09 and HiCy15,0
same,gadolinium enhancing lesions (GEL) at follow-up,[2]; patients HiCy11 and HiCy19 (HiCy19 only 6 months of follow-up),always had GEL on every follow up
